For assay [1], the system named is C57BL/6J mice. In words: Lithiasis of the gallbladder and cholesterol crystals, protocol #2 (Ezetimibe in lithogenic diet, 30 days). It is filed as in vivo, mouse. The method, then: We used mice C57BL/6J susceptible to the development of cholelithiasis originally obtained from Jackson Corp (Bar Harbor, Me., USA) and the colonies were grown in our Laboratory of Gastroenterology, Facultad de Medicina, P. Universidad Católica de Chile. The experimental groups were fed a control chow diet low in cholesterol (<0.02% cholesterol, Prolab RMH3000, PMI Feeds Inc., St. Louis, Mo.) or a lithogenic diet (1.25% cholesterol, 0.5% cholic acid, 15% fat, TD90221, Harlan Teklad, Madison, Wis.) (Amigo et al. 2000). These mice were also treated with Ezetimibe (Zetia®, Merk/Schering Plough) or placebo. In protocol #1 Zetia® tablets were grinded in a porcelain mortar and dissolved in water to be administered to the mice in one daily dose (08 h) of 5 mg/Kg weight by gavage in a final volume of […]; the control groups were given the same volume of water by gavage without the drug. […]
Surgery and sample harvest. […] Afterwards, the common biliary duct is cannulated (biliary fistula) with a P-10 polyethylene cannula to collect bile during 15 minutes, determine bile flow by gravimetry (1 g bile=1 ml; bile flow is expressed as μl/min/g of mouse liver) and for posterior chemical analysis of biliary lipids and glutathione, as specified later. […]

Assay [2] concerns Bsep. In words: Hepatic expression of bile salts transporter Bsep (Western blot). Type of assay: in vivo, mouse. The source says: Expression of Specific Bile Salts (Ntcp, Bsep), Phospholipid (MDR2) and Organic Anions or Glutathione (MRP2); And Determination of Glutathione Synthesis (Gluthamylcystein-Synthetase (GGCS)).
Western Blot analysis. We evaluated protein expression levels of the bile salts transporters Ntcp (sinusoidal pole) and Bsep (cannicular pole) by Western blotting in total liver membranes or liver plasma membranes from mice treated with the different diets. Total membranes were obtained from liver fragments homogenized in Tris-HCl pH 7.5, MgCl2 and sucrose. The homogenates were centrifuged at 1,000 g to separate nuclei, and the supernatants were then centrifuged at 100,000 g. The pellet, containing the total membranes, was resuspended in the buffer described above and proteins were quantified by the Bradford method. Aliquots containing 50 μg protein were separated by SDS-PAGE and transfer to nitrocellulose. The membranes were incubated in buffer TBS-T (Tris-HCl pH 7.5, NaCl and Tween-20), milk 5% w/v plus the antibodies to evaluate the different proteins (Bsep, Ntcp). The secondary antibodies were IgG anti rabbit or anti mouse coupled to peroxidase. The protein signals were detected by the ECL method.
Background: A western blot detects proteins with antibodies after separation by electrophoresis.

The test system of assay [3] is SR-BI. The experiment in a line: Hepatic expression of SR-BI. It is filed as in vivo, mouse. To be noted: 14 days.
Assay [4] relates to intestinal cholesterol absorption. The conditions noted are these: mammalian models (murine models); cited from earlier work.

“Also recorded” adds a separate entry of the source.

Take `O=C1[C@H](CC[C@H](O)c2ccc(F)cc2)[C@@H](c2ccc(O)cc2)N1c1ccc(F)cc1` [Ezetimibe, (−)-1-(4-fluorophenyl)-(3R)-[3-(4-fluorophenyl)-(.S)-hydroxypropyl]-(4S)-(4-hydroxyphenyl)-2-azetidinone]: the “mice that developed gallstones or cholesterol crystals in the gallbladder” value in assay [1] (lithogenic diet plus Ezetimibe 5-6 mg/kg/day in the diet, 30 days, 100% on lithogenic diet alone) is 0%. Further, the “formation of cholesterol gallstones” value in assay [1] (lithogenic diet plus Ezetimibe in the diet, 30 days (FIG. 5)) is on record as “inhibits; also recorded: completely inhibited”. Moreover, in assay [2] (14 days), the “hepatic expression of Bsep, lithogenic diet plus Ezetimibe vs lithogenic diet” value is on record as “no significant differences”. In addition, in assay [2] (FIG. 6 A, on both diets), the “Bsep hepatic protein expression level with Ezetimibe” value is listed as “does not show significant changes”. In addition, the “hepatic expression of SR-BI, lithogenic diet plus Ezetimibe vs lithogenic diet” value in assay [3] is “no significant differences”. Also, in assay [4], the “dosages that effectively inhibit intestinal cholesterol absorption” value was 0.1-6 mg/kg body weight per day.

These data come from patent publication US8361999B2, “Methods of treating cholesterol gallstone disease with ezetimibe” (Pontificia Universidad Catolica de Chile, priority 2005, dated 2013).
